# Experimental data as given in PMC8626775, “Anti-schistosomal activities of quinoxaline-containing compounds: From hit identification to lead optimisation” (European Journal of Medicinal Chemistry, 2021).
# Read-outs that look alike come from different tables or passages of the source.
# Experiments:
# S. mansoni adult worms [1] = assay: In vitro laid egg (IVLE) production by S. mansoni adult worm pairs, 72 h; assay type: cell-based, Schistosoma mansoni
# Method: For the evaluation of anti-schistosomal activity on the adult stage of the parasite, 7-wk old worms were transferred into 48 well tissue culture plates (1–3 worm pairs/well, in duplicate). […] DMSO (0.5%) and praziquantel (10 μM in 0.5% DMSO) were also included as negative and positive control treatments. Treated adult worms were incubated for 72 h in a humidified environment containing 5% CO2 at 37 °C. Parasite motility after compound treatment was assessed by a digital image processing-based system (WormassayGP2), modified after Wormassay. Following compound-parasite co-incubation, eggs were collected, fixed in formalin (10% v/v formaldehyde) and enumerated aiming to collect further information on any compound-induced effects on parasite fecundity and IVLE production.
# S. mansoni adult worms [2] = assay: S. mansoni adult worm motility screen (WormassayGP2), 72 h; assay type: cell-based, Schistosoma mansoni
# Summary of the method: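 Seven-week adult S. mansoni worms, perfused from infected mice, were exposed in duplicate (1–3 pairs/well) to […] compound in 0.5% DMSO for 72 h at 37 °C, 5% CO2. Motility was scored by image-based WormassayGP2, and eggs were counted afterwards.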
# S. mansoni schistosomula = S. mansoni schistosomula high-throughput phenotype and motility screen (Roboworm), 72 h; assay type: cell-based, Schistosoma mansoni
# Summary of the method: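 Newly transformed schistosomula (S. mansoni PR-1, mechanically transformed cercariae), 120 per well, exposed to compounds at a single concentration or two-fold titrations for 72 h at 37 °C, 5% CO2.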
# [3] = HepG2 MTT cytotoxicity assay; conditions: human, HepG2 cells
# Method: Initially the cells were handled under sterile conditions and grown at 37 °C in a humidified atmosphere containing 5% CO2. Cytotoxicity was evaluated by way of a 3-(4, 5- dimethylthiazol-2-yl)-2,5-diphenyl tetrazolium bromide (MTT) assay as previously described. The cells were counted in a dual chamber counting slide using the BIORAD TC-10 Automated cell counter, seeded in a 96-well plate (Fisher Scientific, Loughborough, UK) at a density of 2 × 10^4 cells/well and incubated in an atmosphere of 5% CO2 at 37 °C. […] The absorbance readings (at 570 nm) of the soluble formazan crystals were recorded using PolarStar Omega plate reader (BMG-Labtech). […] The latter was used to calculate the selectivity index (SI) of the compounds presented herein.
# S. mansoni [4] = test system: S. mansoni; design: method as in PMID 24416463; conditions: cited from earlier work
# S. mansoni [5] = test system: S. mansoni; design: method as in PMID 24416463; conditions: cited from earlier work; remark: listed apart in the source
# [6] = Schistosoma mansoni, 72 h, Table 1, 72 h, two dose response titrations (0.313–10 μM), 95% CI in brackets, read-out: Activity on schistosomula (EC50, μM - 72 h) Motility
# [7] = Schistosoma mansoni, 72 h, Table 1, 72 h, two dose response titrations (0.313–10 μM), 95% CI in brackets, read-out: Activity on schistosomula (EC50, μM - 72 h) Phenotype
# [8] = Schistosoma mansoni, 72 h, Table 1, mean of phenotype and motility EC50, 72 h, read-out: Activity on schistosomula (EC50, μM - 72 h) Average
compound,measurement,setting,value
c1ccc(/N=c2\sc3ccccc3s\c2=N\c2ccccc2)cc1 [Compound 1],Concentration up until which production of in vitro laid eggs (IVLEs) was significantly inhibited,S. mansoni adult worms [1]; titration 50–6.25 μM,12.5 µM
same,Adult worm motility at 6.25 μM,"S. mansoni adult worms [2]; 6.25 μM, 72 h",normal motility
same,Effect on adult male and female worm pairs at 50 and 25 μM,"S. mansoni adult worms [2]; 50 and 25 μM, 72 h",lethal effect
same,Activity on schistosomula in the primary screen at 10 μM,S. mansoni schistosomula; 72 h,hit
same,Activity on schistosomula in the primary screen at 50 μM,"S. mansoni schistosomula; 50 μM, 72 h",hit
same,EC50,S. mansoni schistosomula; [6],4.47 µM
same,EC50,S. mansoni schistosomula; [7],4.72 µM
same,EC50,S. mansoni schistosomula; [8],4.59 µM
same,EC50,"S. mansoni schistosomula; Schistosoma mansoni, Fig. S3, average schistosomula EC50, read-out: EC50 (Fig. S3, anti-schistosomula activity)",4.41 µM
same,Concentration down to which activity on schistosomula was retained,"S. mansoni schistosomula; dose-response titration, 72 h",5 µM
O=[N+]([O-])c1ccc2nc(Nc3ccccc3)c(Nc3ccccc3)nc2c1 [Compound 19],CC50 at 24 h,[3],12.6 µM
same,Effect on adult worm motility at 3.15 μM,"S. mansoni adult worms [2]; 3.15 μM, lowest concentration tested",complete cessation of worm mobility
same,Effect on adult worm motility at 12.5 and 6.25 μM,S. mansoni adult worms [2]; 12.5 and 6.25 μM,particularly active
same,Activity on schistosomula in the primary screen at 10 μM,S. mansoni schistosomula; 72 h,retained activity
same,EC50,S. mansoni schistosomula; [6],1.35 µM
same,EC50,S. mansoni schistosomula; [7],1.89 µM
same,EC50,S. mansoni schistosomula; [8],1.62 µM
same,EC50,"S. mansoni schistosomula; Schistosoma mansoni, Table 3, read-out: Anti-schistosomal activity EC50 (μM) Schistosomula Motility",1.35 µM
same,EC50,"S. mansoni schistosomula; Schistosoma mansoni, Table 3, read-out: Anti-schistosomal activity EC50 (μM) Schistosomula Phenotype",1.89 µM
O=[N+]([O-])c1ccc2nc(-c3ccc(F)cc3)c(-c3ccc(F)cc3)nc2c1 [Compound 21],CC50 at 24 h,[3],6 to 20 µM
same,EC50,S. mansoni schistosomula; [6],> 50 µM
same,EC50,S. mansoni schistosomula; [7],> 50 µM
same,Effect on phenotype and motility of S. mansoni schistosomula,"S. mansoni schistosomula; primary tested concentrations 10 and 50 μM, 72 h",did not have any effect
"O=[N+]([O-])c1ccc2nc(Nc3cc(F)cc(C(F)(F)F)c3)c(Nc3cc(F)cc(C(F)(F)F)c3)nc2c1 [Compound 34, N2, N3-bis(3-fluoro-5-(trifluoromethyl)phenyl)-6-nitroquinoxaline-2,3-diamine]",Effect on IVLE production compared with PZQ,S. mansoni adult worms [1]; 0.0024–10 μM,more potent than PZQ
same,EC50,"S. mansoni adult worms [2]; Schistosoma mansoni, Table 4, Series A, read-out: Anti-schistosomal activity EC50 Adult (nM) Motility",6.47 nM
same,EC50,"S. mansoni adult worms [2]; Schistosoma mansoni, Table 2, 72 h, titrations 0.0095–5 μM, WormassayGP2, read-out: Activity on adult worms (EC50, μM - 72 h) Motility",6.47 nM
same,EC50,"S. mansoni schistosomula; Schistosoma mansoni, 72 h, Table 2, average of phenotype and motility EC50, 72 h, read-out: Activity on schistosomula (EC50, μM - 72 h) Average",0.4 µM
same,EC50,"S. mansoni schistosomula; Schistosoma mansoni, 72 h, Table 2, motility, 72 h, three replicate titrations (0.313–10 μM), read-out: Activity on schistosomula (EC50, μM - 72 h) M",0.43 µM
same,EC50,"S. mansoni schistosomula; Schistosoma mansoni, 72 h, Table 2, phenotype, 72 h, three replicate titrations (0.313–10 μM), read-out: Activity on schistosomula (EC50, μM - 72 h) P",0.37 µM
same,EC50,"S. mansoni schistosomula; Schistosoma mansoni, Table 4, Series A, read-out: Anti-schistosomal activity EC50 Schistosomula (μM) Motility",0.43 µM
same,EC50,"S. mansoni schistosomula; Schistosoma mansoni, Table 4, Series A, read-out: Anti-schistosomal activity EC50 Schistosomula (μM) Phenotype",0.37 µM
"N2, N3-bis(4-bromophenyl)quinoxaline-2,3-diamine [Compound 38, reference compound]",Worm burden reduction,"S. mansoni [4]; four per oral doses of 100 mg/kg, delivered every 4 h",53.4%
same,Worm burden reduction,S. mansoni [4]; single per oral dose of 400 mg/kg,40.8%
same,In vitro activity on S. mansoni,S. mansoni [5],sub micromolar range
same,EC50,"S. mansoni adult worms [2]; Table 2, 72 h, titrations 0.0095–5 μM, WormassayGP2, read-out: Activity on adult worms (EC50, μM - 72 h) Motility",162 nM
same,EC50,"S. mansoni schistosomula; 72 h, read-out: EC50 on schistosomula (bounds and ranges given)",> 2 µM
same,EC50,"S. mansoni schistosomula; Table 2, average of phenotype and motility EC50, 72 h, read-out: Activity on schistosomula (EC50, μM - 72 h) Average",2.44 µM
same,EC50,"S. mansoni schistosomula; Table 2, motility, 72 h, three replicate titrations (0.313–10 μM), read-out: Activity on schistosomula (EC50, μM - 72 h) M",1.21 µM
same,EC50,"S. mansoni schistosomula; Table 2, phenotype, 72 h, three replicate titrations (0.313–10 μM), read-out: Activity on schistosomula (EC50, μM - 72 h) P",3.67 µM
